From ChEMBL document CHEMBL3758177, “Synthesis and biological evaluation of novel phosphoramidate derivatives of coumarin as chitin synthase inhibitors and antifungal agents” (Eur J Med Chem, 2016)
In brackets after ≈: the same amount, converted by molar mass.

Legend:
[1] = test system: Aspergillus flavus; assay: Antifungal activity against Aspergillus flavus ATCC 16870 after 24 hrs by two-fold serial dilution method; type: functional; settings: ATCC 16870, 24 h
[2] = test system: Aspergillus fumigatus; assay: Antifungal activity against Aspergillus fumigatus GIMCC 3.19 after 24 hrs by two-fold serial dilution method; type: functional; settings: GIMCC 3.19, 24 h
[3] = test system: Cryptococcus neoformans; assay: Antifungal activity against Cryptococcus neoformans ATCC 32719 after 24 hrs by two-fold serial dilution method; type: functional; settings: ATCC 32719, 24 h
[4] = test system: Staphylococcus aureus; assay: Antibacterial activity against Methicillin-resistant Staphylococcus aureus N 315 after 24 hrs by two-fold serial dilution method; type: functional; settings: N 315, 24 h
[5] = test system: Staphylococcus aureus; assay: Antibacterial activity against Staphylococcus aureus ATCC 25923 after 24 hrs by two-fold serial dilution method; type: functional; settings: ATCC 25923, 24 h
[6] = test system: Bacillus spizizenii; assay: Antibacterial activity against Bacillus subtilis ATCC 6633 after 24 hrs by two-fold serial dilution method; type: functional; settings: ATCC 6633, 24 h
[7] = test system: Proteus vulgaris; assay: Antibacterial activity against Proteus vulgaris ATCC 8427 after 24 hrs by two-fold serial dilution method; type: functional; settings: ATCC 8427, 24 h
[8] = test system: Pseudomonas aeruginosa; assay: Antibacterial activity against Pseudomonas aeruginosa ATCC 9027 after 24 hrs by two-fold serial dilution method; type: functional; settings: ATCC 9027, 24 h
[9] = test system: Escherichia coli; assay: Antibacterial activity against Escherichia coli JM 109 after 24 hrs by two-fold serial dilution method; type: functional; settings: JM 109, 24 h
[10] = test system: Candida tropicalis; assay: Inhibition of Candida tropicalis ATCC 750 chitin synthase using UDP-GlcNAc as substrate at 300 ug/ml after 60 mins by microplate reader method
[11] = test system: Candida albicans; assay: Antifungal activity against Candida albicans CMCC 76615 after 24 hrs by two-fold serial dilution method; type: functional; settings: CMCC 76615, 24 h
[12] = Inhibition of Candida tropicalis ATCC 750 chitin synthase using UDP-GlcNAc as substrate after 60 mins by microplate reader method
[13] = test system: Fusarium oxysporum; assay: Antifungal activity against Fusarium oxysporum ITCC 6246 after 48 hrs by microdilution method; type: functional; settings: ITCC 6246, 48 h
[14] = test system: Candida albicans; assay: Antifungal activity against Candida albicans CMCC 76615 after 48 hrs by microdilution method; type: functional; settings: CMCC 76615, 48 h
[15] = Non-competitive inhibition of Candida tropicalis ATCC 750 chitin synthase using UDP-GlcNAc as substrate by Lineweaver-Burk plot analysis

Structure (SMILES): COC(=O)C(NP(=O)(OCCN(C)c1cc(=O)oc2ccc(C)cc12)Oc1ccccc1)C(C)C (centres undefined)
- MIC [1]: 128 µg/mL (≈ 255 µM)
- MIC [2]: 128 µg/mL (≈ 255 µM)
- MIC [3]: 32 µg/mL (≈ 63.7 µM)
- MIC [4]: 32 µg/mL (≈ 63.7 µM)
- MIC [5]: 16 µg/mL (≈ 31.8 µM)
- MIC [6]: 16 µg/mL (≈ 31.8 µM)
- MIC [7]: 32 µg/mL (≈ 63.7 µM)
- MIC [8]: 16 µg/mL (≈ 31.8 µM)
- MIC [9]: 16 µg/mL (≈ 31.8 µM)
- inhibition [10]: 41%
- MIC [11]: 64 µg/mL (≈ 127 µM)

Structure (SMILES): COC(=O)CNP(=O)(OCCN(C)c1cc(=O)oc2c(C)cccc12)Oc1ccccc1 (centres undefined)
- MIC [1]: 64 µg/mL (≈ 139 µM)
- MIC [2]: 128 µg/mL (≈ 278 µM)
- MIC [3]: 64 µg/mL (≈ 139 µM)
- MIC [4]: 256 µg/mL (≈ 556 µM)
- MIC [5]: 128 µg/mL (≈ 278 µM)
- MIC [6]: 512 µg/mL (≈ 1110 µM)
- MIC [7]: 256 µg/mL (≈ 556 µM)
- MIC [8]: 256 µg/mL (≈ 556 µM)
- MIC [9]: 32 µg/mL (≈ 69.5 µM)
- inhibition [10]: 55%
- IC50 [12]: 450 µM
- MIC [11]: 64 µg/mL (≈ 139 µM)

Structure (SMILES): COC(=O)C(Cc1ccccc1)NP(=O)(OCCN(C)c1cc(=O)oc2cc(C)ccc12)Oc1ccccc1 (centres undefined)
- MIC [1]: 1 µg/mL (≈ 1.82 µM)
- MIC [2]: 64 µg/mL (≈ 116 µM)
- MIC [3]: 32 µg/mL (≈ 58.1 µM)
- MIC [4]: 2 µg/mL (≈ 3.63 µM)
- MIC [5]: 32 µg/mL (≈ 58.1 µM)
- MIC [6]: 16 µg/mL (≈ 29.1 µM)
- MIC [7]: 16 µg/mL (≈ 29.1 µM)
- MIC [8]: 128 µg/mL (≈ 232 µM)
- MIC [9]: 16 µg/mL (≈ 29.1 µM)
- inhibition [10]: 56%
- IC50 [12]: 300 µM
- MIC [11]: 64 µg/mL (≈ 116 µM)

Structure (SMILES): NC(=O)OC[C@H](O)[C@@H](O)[C@H](N)C(=O)N[C@H](C(=O)O)[C@H]1O[C@@H](n2cc(CO)c(=O)[nH]c2=O)[C@H](O)[C@@H]1O [POLYOXIN B]
- MIC [1]: 64 µg/mL (≈ 126 µM)
- MIC [2]: 64 µg/mL (≈ 126 µM)
- MIC [3]: 8 µg/mL (≈ 15.8 µM)
- inhibition [10]: 82%
- IC50 [12]: 160 µM
- MIC [11]: 32 µg/mL (≈ 63.1 µM)

Structure (SMILES): CC1COc2c(N3CCN(C)CC3)c(F)cc3c(=O)c(C(=O)O)cn1c23 (centres undefined) [OFLOXACIN]
- MIC [4]: 1 µg/mL (≈ 2.77 µM)
- MIC [5]: 1 µg/mL (≈ 2.77 µM)
- MIC [6]: 0.25 µg/mL (≈ 0.692 µM)
- MIC [7]: 0.25 µg/mL (≈ 0.692 µM)
- MIC [8]: 0.25 µg/mL (≈ 0.692 µM)
- MIC [9]: 0.25 µg/mL (≈ 0.692 µM)

Structure (SMILES): COC(=O)C(Cc1ccccc1)NP(=O)(OCCN(C)c1cc(=O)oc2c(C)cccc12)Oc1ccccc1 (centres undefined)
- MIC [1]: 64 µg/mL (≈ 116 µM)
- MIC [2]: 128 µg/mL (≈ 232 µM)
- MIC [3]: 64 µg/mL (≈ 116 µM)
- MIC [4]: 1 µg/mL (≈ 1.82 µM)
- MIC [5]: 256 µg/mL (≈ 465 µM)
- MIC [6]: 16 µg/mL (≈ 29.1 µM)
- MIC [7]: 256 µg/mL (≈ 465 µM)
- MIC [8]: 128 µg/mL (≈ 232 µM)
- MIC [9]: 256 µg/mL (≈ 465 µM)
- inhibition [10]: 48%
- MIC [11]: 128 µg/mL (≈ 232 µM)

Structure (SMILES): COC(=O)C(NP(=O)(OCCN(C)c1cc(=O)oc2ccc(C(C)(C)C)cc12)Oc1ccccc1)C(C)C (centres undefined)
- MIC [1]: 2 µg/mL (≈ 3.67 µM)
- MIC [2]: 64 µg/mL (≈ 118 µM)
- MIC [3]: 32 µg/mL (≈ 58.8 µM)
- MIC [4]: 16 µg/mL (≈ 29.4 µM)
- MIC [5]: 32 µg/mL (≈ 58.8 µM)
- MIC [6]: 16 µg/mL (≈ 29.4 µM)
- MIC [7]: 32 µg/mL (≈ 58.8 µM)
- MIC [8]: 32 µg/mL (≈ 58.8 µM)
- MIC [9]: 16 µg/mL (≈ 29.4 µM)
- inhibition [10]: 62%
- IC50 [12]: 180 µM
- MIC [11]: 64 µg/mL (≈ 118 µM)

Structure (SMILES): COC(=O)C(C)NP(=O)(OCCN(C)c1cc(=O)oc2cc(C)ccc12)Oc1ccccc1 (centres undefined)
- MIC [1]: 64 µg/mL (≈ 135 µM)
- MIC [2]: 128 µg/mL (≈ 270 µM)
- MIC [3]: 128 µg/mL (≈ 270 µM)
- MIC [4]: 256 µg/mL (≈ 540 µM)
- MIC [5]: 128 µg/mL (≈ 270 µM)
- MIC [6]: 256 µg/mL (≈ 540 µM)
- MIC [7]: 256 µg/mL (≈ 540 µM)
- MIC [8]: 256 µg/mL (≈ 540 µM)
- MIC [9]: 128 µg/mL (≈ 270 µM)
- inhibition [10]: 45%
- MIC [11]: 128 µg/mL (≈ 270 µM)

Structure (SMILES): Cc1ccc(NS(=O)(=O)c2cc3c(CN=[N+]=[N-])cc(=O)oc3cc2C)cc1
- MIC [13]: 1 µg/mL (≈ 2.6 µM)
- MIC [14]: 1 µg/mL (≈ 2.6 µM)

Structure (SMILES): COC(=O)C(NP(=O)(OCCN(C)c1cc(=O)oc2cc(C)ccc12)Oc1ccccc1)C(C)C (centres undefined)
- MIC [1]: 128 µg/mL (≈ 255 µM)
- MIC [2]: 128 µg/mL (≈ 255 µM)
- MIC [3]: 128 µg/mL (≈ 255 µM)
- MIC [4]: 128 µg/mL (≈ 255 µM)
- MIC [5]: 64 µg/mL (≈ 127 µM)
- MIC [6]: 32 µg/mL (≈ 63.7 µM)
- MIC [7]: 128 µg/mL (≈ 255 µM)
- MIC [8]: 64 µg/mL (≈ 127 µM)
- MIC [9]: 256 µg/mL (≈ 509 µM)
- inhibition [10]: 38%
- MIC [11]: 128 µg/mL (≈ 255 µM)

Structure (SMILES): CN[C@@H]1[C@H](O[C@H]2[C@H](O[C@H]3[C@H](O)[C@@H](O)[C@H](N=C(N)N)[C@@H](O)[C@@H]3N=C(N)N)O[C@@H](C)[C@]2(O)C=O)O[C@@H](CO)[C@H](O)[C@H]1O [STREPTOMYCIN]
- MIC [4]: 4 µg/mL (≈ 6.88 µM)
- MIC [5]: 4 µg/mL (≈ 6.88 µM)
- MIC [6]: 4 µg/mL (≈ 6.88 µM)
- MIC [7]: 1 µg/mL (≈ 1.72 µM)
- MIC [8]: 4 µg/mL (≈ 6.88 µM)
- MIC [9]: 4 µg/mL (≈ 6.88 µM)

Structure (SMILES): OC(Cn1cncn1)(Cn1cncn1)c1ccc(F)cc1F [FLUCONAZOLE]
- MIC [1]: 32 µg/mL (≈ 104 µM)
- MIC [2]: 32 µg/mL (≈ 104 µM)
- MIC [3]: 8 µg/mL (≈ 26.1 µM)
- MIC [13]: 8 µg/mL (≈ 26.1 µM)
- MIC [14]: 8 µg/mL (≈ 26.1 µM)
- MIC [11]: 16 µg/mL (≈ 52.2 µM)

Structure (SMILES): COC(=O)C(Cc1ccccc1)NP(=O)(OCCN(C)c1cc(=O)oc2ccc(C(C)(C)C)cc12)Oc1ccccc1 (centres undefined)
- MIC [1]: 2 µg/mL (≈ 3.37 µM)
- MIC [2]: 32 µg/mL (≈ 54 µM)
- MIC [3]: 8 µg/mL (≈ 13.5 µM)
- Ki [15]: 96 µM
- MIC [4]: 128 µg/mL (≈ 216 µM)
- MIC [5]: 8 µg/mL (≈ 13.5 µM)
- MIC [6]: 32 µg/mL (≈ 54 µM)
- MIC [7]: 16 µg/mL (≈ 27 µM)
- MIC [8]: 16 µg/mL (≈ 27 µM)
- MIC [9]: 16 µg/mL (≈ 27 µM)
- inhibition [10]: 90%
- IC50 [12]: 80 µM
- MIC [11]: 8 µg/mL (≈ 13.5 µM)
